Measured values as given in the supplement of paper PMC10307832.

Tests used:
Experiment in all cases: relative viability (nuclei count vs DMSO), 5 days (fraction); higher = more cells survive
COR-L23 = test system: COR-L23
Method in brief: (§1)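 Relative viability divides the nuclei count in treated wells by that in vehicle wells. Lung cancer cell lines were seeded in 1536-well plates, dosed by pin tool the next day, and fixed and stained after 5 days in one step with final 0.05% Triton X-100, 1% formaldehyde and 1 ug/ml Hoechst. Dosing was a single drug or a fixed anchor-drug dose plus five library-drug doses (not always all listed) in √10 steps, and values are medians of duplicate plates imaged at 4×.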

NCI-H441 = test system: NCI-H441
Method in brief: as §1

NCI-H460 = test system: NCI-H460
Method in brief: as §1

NCI-H1650 = test system: NCI-H1650
Method in brief: as §1

NCI-H358 = test system: NCI-H358
Method in brief: as §1

SK-LU-1 = test system: SK-LU-1
Method in brief: as §1

NCI-H1975 = test system: NCI-H1975
Method in brief: as §1

BEN = test system: BEN
Method in brief: as §1

NCI-H1651 = test system: NCI-H1651
Method in brief: as §1

NCI-H2085 = test system: NCI-H2085
Method in brief: as §1

NCI-H1734 = test system: NCI-H1734
Method in brief: as §1

NCI-H838 = test system: NCI-H838
Method in brief: as §1

NCI-H1793 = test system: NCI-H1793
Method in brief: as §1

HCC-366 = test system: HCC-366
Method in brief: as §1

NCI-H1437 = test system: NCI-H1437
Method in brief: as §1

LOU-NH91 = test system: LOU-NH91
Method in brief: as §1

NCI-H1355 = test system: NCI-H1355
Method in brief: as §1

CAL-12T = test system: CAL-12T
Method in brief: as §1

LU99A = test system: LU99A
Method in brief: as §1

NCI-H2342 = test system: NCI-H2342
Method in brief: as §1

NCI-H2023 = test system: NCI-H2023
Method in brief: as §1

Compound: O=c1cc(N2CCOCC2)oc2c(-c3cccc4c3sc3ccccc34)cccc12 + Cc1cc(Nc2cc(N3CCN(C)CC3)nc(Sc3ccc(NC(=O)C4CC4)cc3)n2)n[nH]1 [Tozasertib] (partner 0.1 µM)
- relative viability (COR-L23; first compound 0.01 µM): 0.213
- relative viability (COR-L23; first compound 0.03162 µM): 0.231
- relative viability (COR-L23; first compound 0.1 µM): 0.18
- relative viability (COR-L23; first compound 0.3162 µM): 0.234
- relative viability (COR-L23; first compound 1 µM): 0.225
- relative viability (NCI-H441; first compound 0.01 µM): 0.671
- relative viability (NCI-H441; first compound 0.03162 µM): 0.713
- relative viability (NCI-H441; first compound 0.1 µM): 0.692
- relative viability (NCI-H441; first compound 0.3162 µM): 0.658
- relative viability (NCI-H441; first compound 1 µM): 0.719
- relative viability (NCI-H460; first compound 0.01 µM): 0.342
- relative viability (NCI-H460; first compound 0.03162 µM): 0.479
- relative viability (NCI-H460; first compound 0.1 µM): 0.511
- relative viability (NCI-H460; first compound 0.3162 µM): 0.417
- relative viability (NCI-H460; first compound 1 µM): 0.465
- relative viability (NCI-H1650; first compound 0.01 µM): 0.383
- relative viability (NCI-H1650; first compound 0.03162 µM): 0.416
- relative viability (NCI-H1650; first compound 0.1 µM): 0.392
- relative viability (NCI-H1650; first compound 0.3162 µM): 0.373
- relative viability (NCI-H1650; first compound 1 µM): 0.352
- relative viability (NCI-H358; first compound 0.01 µM): 0.113
- relative viability (NCI-H358; first compound 0.03162 µM): 0.102
- relative viability (NCI-H358; first compound 0.1 µM): 0.115
- relative viability (NCI-H358; first compound 0.3162 µM): 0.0946
- relative viability (NCI-H358; first compound 1 µM): 0.101
- relative viability (SK-LU-1; first compound 0.01 µM): 0.314
- relative viability (SK-LU-1; first compound 0.03162 µM): 0.298
- relative viability (SK-LU-1; first compound 0.1 µM): 0.393
- relative viability (SK-LU-1; first compound 0.3162 µM): 0.308
- relative viability (SK-LU-1; first compound 1 µM): 0.329
- relative viability (NCI-H1975; first compound 0.01 µM): 0.692
- relative viability (NCI-H1975; first compound 0.03162 µM): 0.657
- relative viability (NCI-H1975; first compound 0.1 µM): 0.958
- relative viability (NCI-H1975; first compound 0.3162 µM): 0.746
- relative viability (NCI-H1975; first compound 1 µM): 0.76
- relative viability (BEN; first compound 0.01 µM): 0.487
- relative viability (BEN; first compound 0.03162 µM): 0.469
- relative viability (BEN; first compound 0.1 µM): 0.482
- relative viability (BEN; first compound 0.3162 µM): 0.463
- relative viability (BEN; first compound 1 µM): 0.531
- relative viability (NCI-H1651; first compound 0.01 µM): 0.687
- relative viability (NCI-H1651; first compound 0.03162 µM): 0.848
- relative viability (NCI-H1651; first compound 0.1 µM): 0.844
- relative viability (NCI-H1651; first compound 0.3162 µM): 0.72
- relative viability (NCI-H1651; first compound 1 µM): 0.751
- relative viability (NCI-H2085; first compound 0.01 µM): 0.841
- relative viability (NCI-H2085; first compound 0.03162 µM): 0.813
- relative viability (NCI-H2085; first compound 0.1 µM): 0.741
- relative viability (NCI-H2085; first compound 0.3162 µM): 0.73
- relative viability (NCI-H2085; first compound 1 µM): 0.77
- relative viability (NCI-H1734; first compound 0.01 µM): 0.236
- relative viability (NCI-H1734; first compound 0.03162 µM): 0.264
- relative viability (NCI-H1734; first compound 0.1 µM): 0.307
- relative viability (NCI-H1734; first compound 0.3162 µM): 0.259
- relative viability (NCI-H1734; first compound 1 µM): 0.243
- relative viability (NCI-H838; first compound 0.01 µM): 0.246
- relative viability (NCI-H838; first compound 0.03162 µM): 0.273
- relative viability (NCI-H838; first compound 0.1 µM): 0.27
- relative viability (NCI-H838; first compound 0.3162 µM): 0.298
- relative viability (NCI-H838; first compound 1 µM): 0.237
- relative viability (NCI-H1793; first compound 0.01 µM): 0.352
- relative viability (NCI-H1793; first compound 0.1 µM): 0.324
- relative viability (NCI-H1793; first compound 0.3162 µM): 0.312
- relative viability (NCI-H1793; first compound 1 µM): 0.276
- relative viability (HCC-366; first compound 0.01 µM): 0.123
- relative viability (HCC-366; first compound 0.03162 µM): 0.125
- relative viability (HCC-366; first compound 0.1 µM): 0.102
- relative viability (HCC-366; first compound 0.3162 µM): 0.211
- relative viability (HCC-366; first compound 1 µM): 0.121
- relative viability (NCI-H1437; first compound 0.01 µM): 0.351
- relative viability (NCI-H1437; first compound 0.03162 µM): 0.406
- relative viability (NCI-H1437; first compound 0.1 µM): 0.428
- relative viability (NCI-H1437; first compound 0.3162 µM): 0.431
- relative viability (NCI-H1437; first compound 1 µM): 0.373
- relative viability (LOU-NH91; first compound 0.01 µM): 0.642
- relative viability (LOU-NH91; first compound 0.03162 µM): 0.65
- relative viability (LOU-NH91; first compound 0.1 µM): 0.655
- relative viability (LOU-NH91; first compound 0.3162 µM): 0.697
- relative viability (LOU-NH91; first compound 1 µM): 0.65
- relative viability (NCI-H1355; first compound 0.01 µM): 0.545
- relative viability (NCI-H1355; first compound 0.03162 µM): 0.59
- relative viability (NCI-H1355; first compound 0.1 µM): 0.552
- relative viability (NCI-H1355; first compound 0.3162 µM): 0.55
- relative viability (NCI-H1355; first compound 1 µM): 0.514
- relative viability (CAL-12T; first compound 0.01 µM): 0.354
- relative viability (CAL-12T; first compound 0.03162 µM): 0.248
- relative viability (CAL-12T; first compound 0.1 µM): 0.347
- relative viability (CAL-12T; first compound 0.3162 µM): 0.277
- relative viability (CAL-12T; first compound 1 µM): 0.288
- relative viability (LU99A; first compound 0.01 µM): 0.262
- relative viability (LU99A; first compound 0.03162 µM): 0.279
- relative viability (LU99A; first compound 0.1 µM): 0.273
- relative viability (LU99A; first compound 0.3162 µM): 0.303
- relative viability (LU99A; first compound 1 µM): 0.267
- relative viability (NCI-H2342; first compound 0.01 µM): 0.643
- relative viability (NCI-H2342; first compound 0.03162 µM): 0.504
- relative viability (NCI-H2342; first compound 0.1 µM): 0.535
- relative viability (NCI-H2342; first compound 0.3162 µM): 0.555
- relative viability (NCI-H2342; first compound 1 µM): 0.469
- relative viability (NCI-H2023; first compound 0.01 µM): 0.353
- relative viability (NCI-H2023; first compound 0.03162 µM): 0.402
- relative viability (NCI-H2023; first compound 0.1 µM): 0.438
- relative viability (NCI-H2023; first compound 0.3162 µM): 0.359
- relative viability (NCI-H2023; first compound 1 µM): 0.373
